This note sets out measurements from patent US11105747B2, “Spectroscopic methods to detect and characterize microorganisms” (Spectral Platforms, Inc., priority 2017, dated 2021).

Converted amounts (≈) assume the structure as drawn.

The test deals with unknown pathogen. The test can be described thus: Antimicrobial susceptibility (MIC/MBC) from Raman slope and time to cloudiness versus antimicrobial concentration. In kind it is cell-based. The protocol:
To measure the minimum inhibitory concentration, or to otherwise characterize the antimicrobial susceptibility of any unknown pathogen to a candidate antimicrobial: • (a) Incubate the unknown pathogen for about 3 hours in a rich media. This time period should suffice to increase the concentration of the causative pathogen by about >100×. […] Incubate this mixture for another 20 minutes, which allows for sufficient time for the 10 CFUs to interact with the candidate antimicrobial. • (d) Add the 7 mixtures to the test vials, and test. The number of free radicals present in the mixed sample is a function of the concentration of the antimicrobial, and so the final slope can be plotted against antimicrobial concentration to develop estimates for the MIC. This is illustrated in FIGS. 32A and 32B.
FIG. 32A depicts the measured slope as a function of antimicrobial agent (vancomycin) concentration. FIG. 32B depicts the time taken for the tested samples to become cloudy. Above 2 μg/m L, the samples remain clear for very long incubation periods (>96 hours). Thus, the Minimum Bactericidal Concentration MBC is about 2 μg/mL. Above 0.25 mg/mL, the time to cloudiness increases slightly. […] As illustrated in FIGS. 32A and 32B, the MIC corresponds to the concentration at which the signal decreases slightly. Further, the MBC (Minimum Bactericidal Concentration) corresponds to the concentration at which the signal increases again.

In the case of `CN[C@H](CC(C)C)C(=O)N[C@H]1C(=O)N[C@@H](CC(N)=O)C(=O)N[C@H]2C(=O)N[C@H]3C(=O)N[C@H](C(=O)N[C@H](C(=O)O)c4cc(O)cc(O)c4-c4cc3ccc4O)[C@H](O)c3ccc(c(Cl)c3)Oc3cc2cc(c3O[C@@H]2O[C@H](CO)[C@@H](O)[C@H](O)[C@H]2O[C@H]2C[C@](C)(N)[C@H](O)[C@H](C)O2)Oc2ccc(cc2Cl)[C@H]1O` [vancomycin], the “time taken for the tested samples to become cloudy (samples remain clear)” value (above 2 μg/mL vancomycin) is more than 96 h. Moreover, the MBC (concentration above which samples remain clear, signal increases again, read-out: Minimum Bactericidal Concentration MBC) is approximately 2 µg/mL (≈ 1.38 µM). Also, the MIC (read-out: MIC (minimum inhibitory concentration)) was approximately 250 µg/mL (≈ 173 µM).
